In article PMC12505902, “Inhibitors of trehalose-6-phosphate synthase activity in fungal pathogens compromise thermal tolerance pathways” (mBio, 2025):

System: C. neoformans WT H99
Assay: C. neoformans capsule assay (India Ink)
Type: cell-based
Details: 0.1, 0.5 and 1 mM 4456dh, 72 hours at 30°C, dose-dependent
Method: Fig 5 4456dh treatment results in reduced trehalose accumulation and a decrease in Tps1-dependent virulence factors. Trehalose accumulation measurements for C. albicans (A) and C. neoformans (B) cultured at indicated temperatures in the absence or presence of 0.5 mM 4456dh. Trehalose was measured using a colorimetric glucose assay after treatment of cultures with trehalase. Statistical comparisons were done with a one-way analysis of variance (ANOVA) analysis followed by a post hoc Tukey’s test. Error bars represent SE. (C) C. albicans WT strain SC5314 cells were treated with 0.5 mM, 1.0 mM, and 5 mM 4456dh. Untreated C. albicans WT cells and the C. albicans tps1Δ/tps1Δ deletion strain were included in this experiment as positive and negative controls, respectively. Increasing concentrations of 4456dh negatively affect filamentation in C. albicans in YPD plus 10% fetal bovine serum incubated at 37°C for 2 hours. Representative images from two independent experiments are shown. The scale bars represent 10 microns. (D) Analysis of capsule formation in C. neoformans WT H99 using India Ink counter-staining in cells treated with 0.1 mM, 0.5 mM, and 1 mM 4456dh. […] Cells were harvested, stained in India Ink, and analyzed using differential interference contrast imaging. […]
190 (Zeiss). The size of the capsule of > 100 cells per 4456dh treatment was quantified using Image […]

With Cn1cc(-c2csc(NC(=O)Cc3ccccn3)n2)cn1 [Compound 4456dh] the capsule production was “capsule production was affected”.
